Experimental data taken from patent publication US10111420B2 (priority 2011, dated 2018).

Test: Sessile advancing contact angle of distilled water containing surfactants
Assay type: physicochemical
Conditions: water on oven dry P. radiata
Procedure: The contact angle data is recorded using water because resins, by their nature, can continue to polymerise resulting in changes in viscosity which will change the wetting behaviour of the resin/surfactant mix. […] Water is also present in all amino resins as the carrier of the resin solids so it is important to understand the effect of the surfactant on water because this will have a direct relationship on the wetting performance of the resin. The contact angle shown below is the average of at least 5 measurements. The measurements were taken after 1 second and in some instances after half a second. Where the entry is “n/a” it indicates complete wetting i.e. a contact angle of 0° or very close to 0°.

CCCCCCCCCCCCOS(=O)(=O)[O-].[Na+] [SDS]
Contact angle @ 1 sec (surfactant 0.05%, octanol 0.1%): 31.0 °
Contact angle @ 1 sec (surfactant 0.1%, octanol 0.1%): 9.5 °
Contact angle @ 1 sec (surfactant 0.1%, octanol 0.25%): 8.99 °
